System: SU-DHL-1 lymphoma cells
Settings: mouse, in vivo

With O=P1(N(CCCl)CCCl)NCCCO1 (stereo not drawn) [cyclophosphamide] the “animal weight relative to the average weight on day 0” value was 104.7%±1.6%, the mean tumor volume was 367±79 mm^3 and the “tumor volume inhibition rate TGITV” value was −93%.
